In US11919856B2, “Compounds” (UCL BUSINESS LTD, priority 2018, dated 2024):

Key:
Z α1-antitrypsin [1] = molecular target: T1, Z α1-antitrypsin (Homo sapiens, UniProt P01009, E366K/V237A); assay: Polymerisation of Z α1-antitrypsin in iPSC-derived hepatocytes (ZZ genotype); format: cell-based; parameters: a random insertion of the human Z α1-antitrypsin gene; from tissue; host or cells: liver and plasma of Z α1-antitrypsin transgenic mice (human Z transgene); conditions: read-out: pIC50, polymerisation of Z α1-antitrypsin (converted)
Protocol: In order to confirm that the potency and efficacy of Compound 1 in CHO-TET-ON-Z-A1AT was a reasonable estimate of what could be expected in hepatocytes with endogenous levels of expression, the effect of Compound 1 on the secretion and polymerisation of Z α1-antitrypsin was measured in iPSC-derived hepatocytes with the ZZ α1-antitrypsin genotype (Yusa et al. Nature. 2011; 478:391-4).

α1-antitrypsin = assay: Thermal shift assay (SYPRO Orange); format: biochemical; conditions: 50 µM Compound 1, SYPRO Orange, versus absence
Protocol: The native state stability of serpins on addition of compounds was investigated by thermal denaturation in the presence of a 5× concentration of SYPRO Orange dye solution (Life Technologies). A final protein concentration of 0.1 mg/ml and 50 uM compound suspended in PBS was used (Nettleship et al. Methods Mol Biol. 2008; 426:299-318). The samples were heated from 25° C.-95° C. at a rate of 1° C./min in three separate experiments on an Eppendorph Mastercycler Realplex4 quantitative real-time PCR instrument, and the fluorescence in the 605±15 nm bin recorded. The midpoint of denaturation (Tm) is the temperature at which the first derivative of fluorescence intensity against temperature reaches a maximum.
Polymerisation of α1-antitrypsin occurs from a transient intermediate state known as M*, that is readily populated by the Z variant. One of the hallmarks of M* is its recognition by environment-sensitive fluorescent reporter dyes. Thermal shift assays that make use of the dye SYPRO Orange report the stability of the protein native state against heat-induced unfolding. […] Native state stability can also be probed by equilibrium unfolding using chemical denaturants, where a peak in bis-ANS fluorescence corresponds with a maximally populated unfolding intermediate.

neuroserpin = molecular target: T2, neuroserpin (Homo sapiens, UniProt Q99574); assay: Serpin inhibitory activity, neuroserpin; format: biochemical; conditions: incubation with 50 μM
T2 sequence (Q99574 17-410): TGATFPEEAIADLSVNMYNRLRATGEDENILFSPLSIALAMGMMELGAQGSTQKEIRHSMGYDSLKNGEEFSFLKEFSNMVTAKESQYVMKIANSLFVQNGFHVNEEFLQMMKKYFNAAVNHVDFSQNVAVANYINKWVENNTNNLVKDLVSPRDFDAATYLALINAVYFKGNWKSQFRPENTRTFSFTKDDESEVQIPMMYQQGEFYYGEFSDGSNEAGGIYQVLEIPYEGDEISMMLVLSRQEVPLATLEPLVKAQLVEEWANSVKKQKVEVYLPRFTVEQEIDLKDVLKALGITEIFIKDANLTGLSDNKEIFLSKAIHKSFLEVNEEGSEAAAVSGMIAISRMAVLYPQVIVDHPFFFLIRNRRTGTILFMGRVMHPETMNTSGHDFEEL
Text: (§1) In order to investigate suitability of Compound 1 for progression into in vivo studies and the potential for taking forward as a clinical candidate for testing in human, Compound 1 was profiled against a panel of in vitro assays for off-targets considered predictive of potential safety liabilities. […] The measured potency of these marginal activities were at least 10-fold below the cellular activity of Compound 1 at blocking Z α1-antitrypsin polymerisation (pEC50 6.3). Loss of inhibitory activity represents a means by which possible off-target engagement with other serpins can be evaluated. However in contrast to α1-antitrypsin upon incubation with 50 μM Compound 1 the inhibitory activity of the homologues antithrombin, neuroserpin and antichymotrypsin was not affected.

antichymotrypsin = molecular target: T3, antichymotrypsin (Homo sapiens, UniProt P01011); assay: Serpin inhibitory activity, antichymotrypsin; format: biochemical; conditions: incubation with 50 μM
T3 sequence (P01011 24-423): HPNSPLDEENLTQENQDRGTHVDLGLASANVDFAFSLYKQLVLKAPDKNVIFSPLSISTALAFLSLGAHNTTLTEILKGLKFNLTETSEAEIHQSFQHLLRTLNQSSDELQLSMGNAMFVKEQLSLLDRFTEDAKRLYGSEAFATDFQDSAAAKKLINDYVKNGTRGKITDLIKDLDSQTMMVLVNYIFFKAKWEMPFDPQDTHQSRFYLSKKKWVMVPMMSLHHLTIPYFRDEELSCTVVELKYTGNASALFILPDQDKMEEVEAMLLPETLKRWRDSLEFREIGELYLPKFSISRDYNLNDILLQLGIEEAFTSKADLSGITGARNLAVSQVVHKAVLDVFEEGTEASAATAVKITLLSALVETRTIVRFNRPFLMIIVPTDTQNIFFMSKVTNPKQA
Text: as §1

CHO-TET-ON-Z-A1AT cells = assay: Cell viability assay with ER stressor tunicamycin; format: cell-based; conditions: 10 μM, versus cells expressing wild-type M α1-antitrypsin
Protocol: To investigate the ability of Compound 1 to protect cells from sensitisation to a secondary toxin, Z α1-antitrypsin expression was induced in CHO-TET-ON-Z-A1AT cells in the presence or absence of 10 μM Compound 1 before exposure to varying concentrations of the ER stressor tunicamycin. In a cell viability assay, cells expressing wild-type M α1-antitrypsin were less sensitive to tunicamycin than cells expressing Z α1-antitrypsin.

[2] = In vitro clearance in cryopreserved hepatocytes, human; format: in vitro ADME
Z α1-antitrypsin [3] = molecular target: T1, Z α1-antitrypsin; assay: Compound association experiments (intrinsic tryptophan fluorescence), Z α1-antitrypsin; format: binding; parameters: a random insertion of the human Z α1-antitrypsin gene; from tissue; host or cells: liver and plasma of Z α1-antitrypsin transgenic mice (human Z transgene)
Protocol: The intrinsic tryptophan fluorescence of α1-antitrypsin is dominated by Trp194 in the breach region (Tew et al. J Mol Biol. 2001 Nov. 9; 313(5):1161-9) and can be used to monitor the progress of compound binding. Plasma M and Z α1-antitrypsin were diluted to 0.2 mg/ml in 100 μM PBS, and Compound 1 (or an equivalent volume of DMSO) added to a concentration of 10 μM. Fluorescence (λex=280 nm, λem=330 nm) was monitored for at least 2 hours, and the half-time of change was calculated.
Kinetic data in stopped flow experiments were fitted to exponential decay curves with offset and linear slope, to account for a constant drift in the background, resulting in observed pseudo-first-order rate constants k(obs): y=A0·e^−k(obs)t+slope·t+offset where t=time and Ao=amplitude at t=0. The second-order on-rate was then obtained as the slope when plotting k(obs) values versus compound concentration. Off-rates were calculated from the on-rates and the KD values determined from the binding assays. Cell Biology

T1 sequence (P01009 25-418 V237A/E366K): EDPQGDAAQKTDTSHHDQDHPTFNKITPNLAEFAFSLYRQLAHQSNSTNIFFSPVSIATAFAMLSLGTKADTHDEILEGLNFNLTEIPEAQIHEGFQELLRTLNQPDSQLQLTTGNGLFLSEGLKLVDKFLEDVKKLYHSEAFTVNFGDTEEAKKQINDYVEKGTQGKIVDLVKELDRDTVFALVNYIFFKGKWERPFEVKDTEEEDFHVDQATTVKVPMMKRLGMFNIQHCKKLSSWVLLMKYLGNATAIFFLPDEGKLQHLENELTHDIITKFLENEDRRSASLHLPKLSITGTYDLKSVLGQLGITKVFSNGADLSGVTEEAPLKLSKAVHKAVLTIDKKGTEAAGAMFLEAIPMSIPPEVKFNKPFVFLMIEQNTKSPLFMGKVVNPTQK

With CCC[C@@H](NC(=O)c1cccc2c1CC(=O)N2)[C@@H](O)c1cccc(F)c1C [Compound 1, N-[(1S,2R)-1-(3-fluoro-2-methylphenyl)-1-hydroxypentan-2-yl]-2-oxo-2,3-dihydro-1H-indole-4-carboxamide] the IC50 (Z α1-antitrypsin [1]) was 398 nM, the transition midpoint temperature (α1-antitrypsin) was “marked increase” and the “inhibitory activity of neuroserpin” value (neuroserpin) was “not affected”. The “inhibitory activity of antichymotrypsin” value (antichymotrypsin) was “not affected”, the “sensitivity to tunicamycin in cell viability assay” value (CHO-TET-ON-Z-A1AT cells) was “restored sensitivity” and the “in vitro clearance in cryopreserved hepatocytes” value [2] was 0.3 ± 0.05 mL/min/g. The koff (Z α1-antitrypsin [3]; calculated from on-rate and KD, read-out: first-order dissociation rate) was 6.1e-05 s⁻¹ and the kon (Z α1-antitrypsin [3]; read-out: second-order association rate) was 41000 M⁻¹ s⁻¹.
